Laboratory results from patent publication US20200164034A1, “METHODS FOR IMPROVING SEX-DIMORPHIC RESPONSES TO TARGETED THERAPY IN MELANOMA” (Board of Regents, The University of Texas System, priority 2018, published 2020).

Experiments:
Type in all cases: cell-based, human
[1] = test system: BRAFV600E melanoma cell lines; assay: Hormonal co-treatment in vitro: cell cycle response to DT; conditions: cell culture, co-treatment with dabrafenib 1 μM and trametinib 100 nM
Method: (§1) In parallel, hormonal perturbations were evaluated in vitro using a panel of BRAFV600E melanoma cell lines derived from melanoma patients of the institution.
(§2) Melanoma cell lines derived from tumors of patients treated at UT MD Anderson Cancer Center under the TIL program were obtained from Dr. Chantale Bernatchez and Dr. Scott Woodman. For these studies, n=5 male (2373, 2400, 2650, 2800 and 624-mel) and n=5 female (2153, 2333, 2379, 2508, 2510) lines were selected based on carriage of BRAF^V600E/K mutations and avoidance of prior exposure in vivo to MAPK blockade therapies. Cells were maintained in phenol red-free RPMI-1640 supplemented with 10% heat-inactivated FBS, 1% GlutaMAX and 1% Pencillin/Streptomycin (all Gibco). LNCaP, MCF7 and PC3 cell lines were obtained from institutional stocks and maintained in RPMI-1640 supplemented as above (LNCaP, MCF7) or DMEM/F12 supplemented as above (PC3). All cell lines were confirmed mycoplasma negative using the Lonza MycoALERT kit prior to use, and authenticated by STR profiling via the MD Anderson Characterized Cell Line Core. […]

[2] = test system: BRAFV600E melanoma cell lines; assay: Hormonal co-treatment in vitro: proliferative response to DT; conditions: cell culture, co-treatment with dabrafenib 1 μM and trametinib 100 nM
[3] = test system: BRAFV600E melanoma cell lines; assay: Hormonal co-treatment in vitro: apoptosis response to DT; conditions: cell culture, co-treatment with dabrafenib 1 μM and trametinib 100 nM, 72 hours
Method: as §1
as §2, with “(PC3).” for “(PC3). All cell lines were confirmed mycoplasma negative using the Lonza MycoALERT kit prior to use, and authenticated by STR profiling via the MD Anderson Characterized Cell Line Core.”
Cells were plated into 6-well plates at 250,000 cells/well in full growth media and allowed to adhere overnight prior to drug treatment as shown in results in reduced-serum medium (5% FBS, phenol red-free RPMI-1640). […] Data acquisition by flow cytometry was performed within 2 hours of cell harvest and analyzed in FlowJo after gating on cell size, singlets, and applying Curly Quadrant gates to PI vs YO-PRO-1 fluorescence.

CNC(=O)c1ccc(N2C(=S)N(c3ccc(C#N)c(C(F)(F)F)c3)C(=O)C2(C)C)cc1F [enzalutamide]
no significant effects: effect on cell cycle response to DT treatment [1] | effect on proliferative response to DT treatment [2] | effect on apoptosis response to DT treatment [3]

C[C@]12CC[C@H]3[C@@H](CCC4=CC(=O)CC[C@@]43C)[C@@H]1CC[C@@H]2O [testosterone]
no significant effects: effect on cell cycle response to DT treatment [1] | effect on proliferative response to DT treatment [2] | effect on apoptosis response to DT treatment [3]
